Compound: O=C(/C=C/c1ccccc1)NC(NC(=S)Nc1cccc2cccnc12)C(Cl)(Cl)Cl [Salubrinal] + NC(=O)Nc1cc(-c2cccc(F)c2)sc1C(=O)N[C@H]1CCCNC1 [AZD7762] (partner 0.2 µM)
Assay: relative viability (nuclei count vs DMSO), 5 days (fraction); higher = more cells survive
Settings: first compound 0.8 µM
Procedure, shortened: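 Lung cancer cell lines in 1536-well plates were dosed by pin tool the day after seeding, either with one drug alone or with a fixed anchor-drug dose plus five library-drug doses (not always all listed) in √10 steps. After 5 days, cells were fixed and their nuclei stained in one step (final 0.05% Triton X-100, 1% formaldehyde, 1 ug/ml Hoechst), then counted on 4× images. Relative viability is the nuclei count in treated wells divided by that in vehicle wells. Values are medians of duplicate plates.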

Going from NCI-H1915 to HCC-827, the relative viability falls from 0.718 to 0.199.

Compared with LXF-289, NCI-H23 is lower in relative viability: 1.17 for the first, 0.236 for the second.

Going from NCI-H647 to NCI-H1651, the relative viability rises from 0.487 to 0.546.

First: EPLC-272H
Second: NCI-H1792
The relative viability of the first is lower: 0.304 for the first, 0.982 for the second.

Compared with NCI-H1355, NCI-H3122 is higher in relative viability: 0.821 for the first, 1.07 for the second.

Going from NCI-H1437 to NCI-H1755, the relative viability falls from 1.16 to 0.517.

Going from HCC-15 to PC-14, the relative viability falls from 1.28 to 0.418.

Compared with EKVX, LC-2-ad is lower in relative viability: 0.999 for the first, 0.89 for the second.

Same assay, conditions: first compound 2.53 µM

First: NCI-H1793
Second: NCI-H2405
The relative viability of the first is lower: 0.366 for the first, 0.813 for the second.

Compared with HOP-62, HCC-44 is higher in relative viability: 0.689 for the first, 1 for the second.

Going from LU99A to BEN, the relative viability rises from 0.311 to 0.712.

Compared with HARA, HCC-78 is higher in relative viability: 0.437 for the first, 0.613 for the second.

Compared with NCI-H322M, LCLC-97TM1 is lower in relative viability: 0.497 for the first, 0.139 for the second.

First: A-427
Second: NCI-H441
The relative viability of the first is lower: 0.802 for the first, 0.905 for the second.

First: NCI-H1734
Second: NCI-H460
The relative viability of the first is lower: 0.572 for the first, 0.711 for the second.

Compared with NCI-H2347, NCI-H1395 is lower in relative viability: 0.749 for the first, 0.432 for the second.

Going from 201T to NCI-H1915, the relative viability rises from 0.648 to 0.71.

First: HCC-827
Second: LXF-289
The relative viability of the first is lower: 0.181 for the first, 1.09 for the second.

Going from NCI-H23 to NCI-H647, the relative viability rises from 0.23 to 0.505.

Going from NCI-H1651 to EPLC-272H, the relative viability falls from 0.484 to 0.229.

Going from NCI-H1792 to NCI-H1355, the relative viability rises from 0.571 to 0.691.

Going from NCI-H3122 to NCI-H1437, the relative viability rises from 1.1 to 1.11.

First: NCI-H1755
Second: HCC-15
The relative viability of the first is lower: 0.41 for the first, 1.25 for the second.

Compared with PC-14, EKVX is higher in relative viability: 0.365 for the first, 0.721 for the second.

LC-2-ad showed a relative viability of 0.823.

Same assay, conditions: first compound 8 µM

First: NCI-H1793
Second: NCI-H2405
The relative viability of the first is lower: 0.276 for the first, 0.664 for the second.

First: HOP-62
Second: HCC-44
The relative viability of the first is lower: 0.441 for the first, 0.977 for the second.

First: LU99A
Second: BEN
The relative viability of the first is lower: 0.236 for the first, 0.72 for the second.

Compared with HARA, HCC-78 is higher in relative viability: 0.196 for the first, 0.538 for the second.

Compared with NCI-H322M, LCLC-97TM1 is lower in relative viability: 0.581 for the first, 0.202 for the second.

Going from A-427 to NCI-H441, the relative viability rises from 0.67 to 0.85.

Compared with NCI-H1734, NCI-H460 is higher in relative viability: 0.515 for the first, 0.552 for the second.

Compared with NCI-H2347, NCI-H1395 is lower in relative viability: 0.744 for the first, 0.385 for the second.

First: 201T
Second: NCI-H1915
The relative viability of the first is lower: 0.637 for the first, 0.676 for the second.

Compared with HCC-827, LXF-289 is higher in relative viability: 0.222 for the first, 0.931 for the second.

First: NCI-H23
Second: NCI-H647
The relative viability of the first is lower: 0.23 for the first, 0.397 for the second.

First: NCI-H1651
Second: EPLC-272H
The relative viability of the first is higher: 0.388 for the first, 0.156 for the second.

Going from NCI-H1792 to NCI-H1355, the relative viability rises from 0.354 to 0.691.

Going from NCI-H3122 to NCI-H1437, the relative viability falls from 1.05 to 1.04.

First: NCI-H1755
Second: HCC-15
The relative viability of the first is lower: 0.584 for the first, 1.25 for the second.

Going from PC-14 to EKVX, the relative viability rises from 0.367 to 0.757.

LC-2-ad showed a relative viability of 0.647.
